This is an account of results in ChEMBL document CHEMBL3507680, “University of Dundee, Gates Library screen for HepG2 cell viability”.

The structures appear in SMILES notation.

This data set can be described thus: Human HepG2 cell viability assay in 384 well format. The following applies: HepG2 cells, read-out: Inhibition. Format: toxicity, cell-based. On the set-up: dose 125 nL, time 70.5 hour; cytotoxicity at 70.5 h: concentration not given beside the values.
In the case of `Cc1n[nH]c2c1C(c1cccnc1)SCC(=O)N2` (configuration not stated), the cytotoxicity at 70.5 h is -13.5%.
`O=C(CNC(=O)N1CCN(c2cccc(Cl)c2)CC1)Nc1ccccn1`: the cytotoxicity at 70.5 h was -9.74%.
`COc1ccc(CNc2c(N3CCN(C)CC3)c(=O)c2=O)cc1`: the cytotoxicity at 70.5 h was -8.39%.
Next, `Cc1c(OCC(=O)NCc2ccccc2Cl)c(=O)ccn1C`: -23.2%; `CC(C)(C)n1ncc2c1NC(=O)CSC2c1ccc2c(c1)OCCO2` (configuration not stated): -13%; `CC1CC(=O)c2cc(C(=O)N3CCc4ccccc43)c(=O)[nH]c2C1` (configuration not stated): -1.11%.
The figure for `C[C@@H](O)CNC(=O)c1nc(Cc2c(Cl)cccc2Cl)no1` is -8.72%; for `CC(C)CCNC(=O)c1csc(NC2CC2)n1` it is -9.92%.
As to `CCOC(=O)Cc1csc(NC(=O)c2cc(=O)c(OC)c[nH]2)n1`, the cytotoxicity at 70.5 h is 2.05%.
Next, `CC(=O)c1cn(CCC(=O)Nc2c3c(nn2C)CSC3)c2ccccc12`: 14.7%; `COCc1nnc(NC(=O)CN2C(=O)c3ccccc3NC2C(C)C)s1` (configuration not stated): -12.3%; `O=c1c(NCc2ccco2)c(NCC(O)CN2CCOCC2)c1=O` (configuration not stated): -6.2%.
Consider `O=c1c(NCCc2ccc(O)cc2)c(NCc2ccncc2)c1=O`, for which the cytotoxicity at 70.5 h was -0.102%.
Next, `CNc1c(NCc2ccco2)c(=O)c1=O`: -12.4%; `CC(C)CNC(=O)CNc1c(NCc2ccncc2)c(=O)c1=O`: 4.58%; `O=c1c(NCCOCCO)c(N2CCN(c3ccccc3)CC2)c1=O`: -2.63%.
The figure for `COCCn1ccc(=O)c(OCC(=O)Nc2cccc(Cl)c2)c1C` is -8.65%; for `COc1c[nH]c(C(=O)N2CCN(c3cccc(Cl)c3)CC2)cc1=O` it is -8.19%.
In the case of `COc1ccc(N2CCN(C(=O)c3cc(=O)c(OC)c[nH]3)CC2)cc1`, the cytotoxicity at 70.5 h was -6.09%.
For `Cc1nn(C)cc1C1CC(=O)Nc2c1cnn2C(C)C` (configuration not stated), the cytotoxicity at 70.5 h is -10.7%.
The figure for `Cc1c(C2CC(=O)Nc3c2cnn3C(C)C)cnn1C` (configuration not stated) is -10.4%; for `CN1CCN(CC(CC(=O)Nc2ccc(Cl)cc2)C(=O)O)CC1` (configuration not stated) it is -5.4%.
Next, `CN(Cc1ccccc1)C(=O)Cn1nc(N2CCSCC2)ccc1=O`: -6.57%.
The figure for `Cc1cc(NCCO)nc2[nH]nc(N)c12` is -14.9%; for `COc1ccc(CNC(=O)CCCc2nnc3ccc(OC)nn23)cc1` it is -14.6%.
As for `Cn1ccc2c(NC(=O)Cn3ncc4c(c3=O)CCCCC4)cccc21`, the cytotoxicity at 70.5 h was determined as 3.29%.
The figure for `CC(C)Nc1oc(-c2ccc(S(=O)(=O)N(C)C)o2)nc1C#N` is -8.63%.
Take `Cc1nn2cnnc2c(C)c1CCC(=O)Nc1nnc(C2CC2)s1`: the cytotoxicity at 70.5 h was -10.7%.
Next, `CC1=Nc2c(c(=O)[nH]n2C2CCCC2)C(c2ccc(O)cc2)S1` (configuration not stated): -22.9%; `COc1ccc(C2SC(C)=Nc3c2c(=O)[nH]n3C2CCCC2)cc1O` (configuration not stated): -18.9%; `Cn1ccc2c(NC(=O)Cn3ncc4c(c3=O)CCCC4)cccc21`: 6.85%.
Next, `CC1=Nc2c(c(=O)[nH]n2C(C)C)C(c2cccc(OC(F)F)c2)S1` (configuration not stated): -17.2%.
Turning to `O=C(CCc1ccc(-n2cnnn2)cc1)Nc1nncs1`, the cytotoxicity at 70.5 h is -8.9%.
Next, `Cn1cc(NC(=O)CNC(=O)N2CCN(c3ccccc3)CC2)cn1`: -8.66%.
Next, `O=C(CC1CCCC1)Nc1ccc(-n2cc(Cl)cn2)nc1`: -12.3%; `COc1cccc2c1ccn2CCNC(=O)CC(C)C`: -15.1%; `Cc1nc(C(=O)Nc2cccnc2)c(C(C)C)s1`: -6.88%.
As for `COc1ccc2nnc(CCCC(=O)NCc3ccccc3F)n2n1`, the cytotoxicity at 70.5 h amounted to 21.9%.
Next, `COc1ccc2nnc(CCCC(=O)Nc3nc4c(s3)CCC4)n2n1`: -17.4%.
The figure for `O=C(Nc1cccnc1-n1cc(Cl)cn1)C1CCCCC1` is -26.8%; for `CC(C)CC1CC(=O)Nc2c1cnn2Cc1ccco1` (configuration not stated) it is -22.8%.
Next, `Cc1nn(-c2ncnc3[nH]cnc23)c2c1C(C(C)(C)C)CC(=O)N2` (configuration not stated): 0.0512%.
For `O=C(CCc1nc2cc(Br)cnc2[nH]1)NCc1cccnc1`, the cytotoxicity at 70.5 h is -17.1%.
Next, `O=c1cc2c(nn1CN1CCN(c3ccc(F)cc3)CC1)CCC2`: -13.2%; `O=C(Nc1cccnc1-n1cc(Cl)cn1)C1CC1`: -27.5%.
For the molecule `CC(C)C1CC(=O)Nc2c1cnn2Cc1ccco1` (configuration not stated), the cytotoxicity at 70.5 h was -15.8%.
Next, `O=c1cc2c(nn1CN1CCN(c3ccccc3)CC1)CCCC2`: -15%.
Turning to `COC(=O)[C@H](CCSC)NC(=O)Cc1c(C)nn(-c2ccccc2)c1C`, the cytotoxicity at 70.5 h is -11.6%.
Next, `COc1ccc2nnc(CCC(=O)Nc3nc4c(s3)CCCC4)n2n1`: -11.9%; `Cc1ccc(S(=O)(=O)c2ncccc2CN2CCCCC2)cc1`: -21%; `CC(C)C1SCC(=O)Nc2c1cnn2C(C)C` (configuration not stated): -23.1%.
Consider `O=c1c(CN2CCOCC2)coc(O)c1CN1CCOCC1`, for which the cytotoxicity at 70.5 h is -7.31%.
Consider `CN(C)CC(=O)N1CCc2ncnc(-c3ccsc3)c2CC1`, for which the cytotoxicity at 70.5 h was -0.46%.
Next, `CCn1nnc2c1CCN(S(C)(=O)=O)C2COCc1ccccc1` (configuration not stated): 2.15%; `CC1CN(Cc2cc(C#N)ccc2F)CCN1Cc1nccn1C` (configuration not stated): -3.5%.
With `CCN1CCOC(CNCc2ccc(OCc3ccccn3)cc2)C1` (configuration not stated), the cytotoxicity at 70.5 h was -6.17%.
The figure for `CCOc1ncccc1NC(=O)N1CCCC(CNC(N)=O)C1` (configuration not stated) is -8.62%; for `CCOc1ncccc1NC(=O)N1CCC(CN2CCOCC2)CC1` it is -3.11%.
The figure for `Cc1ccc(C(C)N(C)Cc2nc3c(cnn3C)c(=O)[nH]2)s1` (configuration not stated) is -8.32%.
As for `O=C(Nc1cccc(CNCc2ccccn2)c1)C1CCCC1`, the cytotoxicity at 70.5 h was -4.03%.
For the molecule `CC(c1ccccc1Cl)N(C)Cc1nc2c(cnn2C)c(=O)[nH]1` (configuration not stated), the cytotoxicity at 70.5 h is -2.36%.
Next, `CN(CC(=O)N1CCC(COc2ccccc2)CC1)c1cnccn1`: -0.223%; `CC(C(=O)NC(N)=O)N(C)CCCc1cc(-c2ccccc2)no1` (configuration not stated): -3.63%.
Next, `CCc1ccc(S(=O)(=O)Nc2ccc(F)cc2C(=O)O)s1`: 5.89%; `CC1CN(C)CCN1CC(=O)NCCOc1ccc(Cl)cc1` (configuration not stated): 11.2%.
`Clc1cc(CN2CCCCC2Cn2cncn2)c2ncccc2c1` (configuration not stated): the cytotoxicity at 70.5 h is -9.86%.
As for `CC(C)Oc1ccc(CNC(=O)CN(C)S(C)(=O)=O)cc1F`, the cytotoxicity at 70.5 h was -6.43%.
The figure for `CC(C)Oc1ccc(CNC(=O)CCN2C(=O)CCC2=O)cc1F` is -3.49%; for `CCN1CCOC(CNCc2ccccc2OCc2cccnc2)C1` (configuration not stated) it is 0.0939%; for `CC(C)Oc1ccc(CNC(=O)NCc2ccncc2)cc1F` it is -10.8%.
The figure for `CSCC(=O)N1CCCC(c2cc(C)[nH]n2)C1` (configuration not stated) is -12%; for `CNc1nc(CNC(=O)Nc2ccc(SC)c(F)c2)cs1` it is -1.49%.
Next, `CNc1nc(CNC(=O)Nc2cccc(-n3ccc(C)n3)c2)cs1`: 0.812%; `O=C(NCCNc1ccccn1)N1CCC(O)CC1`: 3.99%; `CC(NC(=O)NCCCn1cncn1)c1ccc(C#N)cc1` (configuration not stated): 1.25%.
As for `Cc1ccc(C(=O)NCCSCc2cccs2)cn1`, the cytotoxicity at 70.5 h was 12.6%.
Turning to `CN(Cc1cnn(C)c1)C(=O)NCCc1ccc2c(c1)OCO2`, the cytotoxicity at 70.5 h is -1.01%.
The figure for `Cc1ccc(CNC(=O)N(C)Cc2cnn(C)c2)s1` is -1.07%.
As to `CCN(Cc1ccc2c(c1)OCCO2)C(=O)NCCc1cnn(C)c1`, the cytotoxicity at 70.5 h came to 0.223%.
For `NC(=O)C1CCN(C(=O)NCCNc2ccccn2)CC1`, the cytotoxicity at 70.5 h is -1.19%.
In the case of `CCc1nc(CN2CCN(C(=O)c3csnn3)CC2)cs1`, the cytotoxicity at 70.5 h is -0.125%.
Consider `Cc1cnn(CCNCc2cc(C#N)ccc2F)c1`, for which the cytotoxicity at 70.5 h turned out to be 18.7%.
In the case of `Cc1cc(NC(=O)CN2CCN(c3nc(C)cs3)C(C)C2)on1` (configuration not stated), the cytotoxicity at 70.5 h is -1.59%.
Next, `Cc1nn(C)c(C)c1C1CCCN1C(=O)c1ccc(N(C)C)nc1` (configuration not stated): -0.439%; `CCCN(C)S(=O)(=O)N1CCCC1c1ccco1` (configuration not stated): 1.45%.
Next, `CN(Cc1cnccn1)S(=O)(=O)N1CCCC1c1ccco1` (configuration not stated): 1.01%; `Cn1cccc1C1CCCCCN1C(=O)c1ccc(NC2CC2)nc1` (configuration not stated): 12.8%; `Cc1cnn(CCNCc2cccc(C#N)c2)c1`: 4.17%.
The figure for `Cc1cnn(CCNCc2ccc(C#N)cc2)c1` is -1.47%.
With `N#Cc1ccc(CNCCn2cccn2)c(F)c1`, the cytotoxicity at 70.5 h is 13.7%.
As to `Cc1csc(N2CCN(CC(=O)NCc3ccccn3)CC2C)n1` (configuration not stated), the cytotoxicity at 70.5 h was -13.9%.
For `Cc1nc(CN2CCCN(C(=O)c3cnccn3)CC2)cs1`, the cytotoxicity at 70.5 h is -3.13%.
Next, `Cc1nc(CN2CCCC2c2noc(C3CC3)n2)nc2ccccc12` (configuration not stated): 43.5%; `Cc1cc(C)n(CC2CCCN2C(=O)c2cncnc2C)n1` (configuration not stated): 1.29%.
As to `Cn1ccnc1C(NCc1ccc(Br)cc1)c1ccccc1` (configuration not stated), the cytotoxicity at 70.5 h was -0.0759%.
Regarding `Cc1ccc(CNC(c2ccccc2)c2nccn2C)cc1` (configuration not stated), the cytotoxicity at 70.5 h was determined as 22.4%.
With `Cc1ncnc2c1CCN(C(=O)CN(C)C)CC2`, the cytotoxicity at 70.5 h worked out at 19.6%.
The figure for `O=C1COC2(CCN(c3cccc(F)c3)CC2)CN1Cc1ccccn1` is 0.382%; for `CC(C)NC(=O)[C@H]1C[C@@H]2[C@@H](C1)OCCN2CC1CC1` it is -3.31%; for `COc1cccc(CCN2C[C@H]3CCNCC[C@H]3S2(=O)=O)c1` it is 23.9%.
The figure for `COCCN1CCN(Cc2ccco2)Cc2ccc(C)nc21` is 2.35%.
Next, `c1ccc(CN2CCOC3(CCN(c4ncccn4)CC3)C2)nc1`: 12%.
